Data as given in article PMC3307806 (Molecular Pharmaceutics, 2012).
Entries after “also recorded” stand apart in the source; their conditions may differ.

Assays:
P-gp at the human BBB = details: human PET study; cited from earlier work
[1] = Pseudo-steady-state blood CsA and plasma Lop/dLop concentrations in rats; details: 60 min; Student's t-test
P-gp (mdr1a/b) = details: 7; cited from earlier work
P-gp at the rat BBB = P-gp at the rat BBB (Rattus norvegicus, UniProt Q6PSM0); details: absence of CsA, 60 min, n=5
P-gp at the rat BBB, sequence (Q6PSM0 1-1272): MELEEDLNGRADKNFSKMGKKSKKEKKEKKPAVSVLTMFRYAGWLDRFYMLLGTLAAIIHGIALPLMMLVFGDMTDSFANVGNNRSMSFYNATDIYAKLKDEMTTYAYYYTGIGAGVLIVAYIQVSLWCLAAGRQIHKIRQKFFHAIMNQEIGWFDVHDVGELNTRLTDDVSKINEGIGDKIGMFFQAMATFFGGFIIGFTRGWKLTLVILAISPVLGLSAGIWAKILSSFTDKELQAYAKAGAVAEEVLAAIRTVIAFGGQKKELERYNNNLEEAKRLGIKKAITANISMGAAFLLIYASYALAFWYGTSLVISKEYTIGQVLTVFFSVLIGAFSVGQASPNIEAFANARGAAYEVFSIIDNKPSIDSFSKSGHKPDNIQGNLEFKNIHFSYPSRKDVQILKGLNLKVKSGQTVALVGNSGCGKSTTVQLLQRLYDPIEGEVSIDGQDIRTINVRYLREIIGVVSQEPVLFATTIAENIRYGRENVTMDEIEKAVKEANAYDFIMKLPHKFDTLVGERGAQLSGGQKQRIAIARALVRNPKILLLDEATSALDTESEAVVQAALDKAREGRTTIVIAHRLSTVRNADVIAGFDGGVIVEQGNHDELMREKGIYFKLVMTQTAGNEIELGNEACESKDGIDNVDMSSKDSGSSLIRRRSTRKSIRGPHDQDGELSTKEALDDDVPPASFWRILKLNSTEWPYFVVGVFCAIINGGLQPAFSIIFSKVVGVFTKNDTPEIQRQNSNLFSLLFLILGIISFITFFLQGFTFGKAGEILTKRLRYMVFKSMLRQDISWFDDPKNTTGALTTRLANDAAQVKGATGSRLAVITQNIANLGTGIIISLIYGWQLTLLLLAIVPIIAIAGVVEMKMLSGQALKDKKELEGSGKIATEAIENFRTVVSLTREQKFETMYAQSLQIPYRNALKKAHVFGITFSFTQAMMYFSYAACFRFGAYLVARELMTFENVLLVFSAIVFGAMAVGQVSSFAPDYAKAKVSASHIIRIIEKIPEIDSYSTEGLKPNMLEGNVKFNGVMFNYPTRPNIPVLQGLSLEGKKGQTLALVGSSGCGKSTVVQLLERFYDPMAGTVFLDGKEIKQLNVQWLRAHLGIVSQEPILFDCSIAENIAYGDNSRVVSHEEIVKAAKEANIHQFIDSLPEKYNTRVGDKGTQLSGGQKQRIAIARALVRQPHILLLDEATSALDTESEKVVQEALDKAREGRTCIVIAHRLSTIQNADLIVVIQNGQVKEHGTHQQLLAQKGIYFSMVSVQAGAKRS

P-gp = details: verapamil-bodipy or prazosin-bodipy as probe substrate; cited from earlier work

CN([11CH3])C(=O)C(CCN1CCC(O)(c2ccc(Cl)cc2)CC1)(c1ccccc1)c1ccccc1 [11C-Lop]
share of radioactivity in the plasma (P-gp at the human BBB): 76%

CN(C)C(=O)C(CCN1CCC(O)(c2ccc(Cl)cc2)CC1)(c1ccccc1)c1ccccc1 [Lop, Loperamide]
effect of the presence of CsA on pseudo-steady-state plasma concentration [1]: did not significantly affect; also recorded: not significantly affected

Cc1c(O)cccc1C(=O)N[C@@H](CSc1ccccc1)[C@H](O)CN1C[C@H]2CCCC[C@H]2C[C@H]1C(=O)NC(C)(C)C [Nelfinavir]
increase in brain:blood concentration ratio in mdr1a/b(-/-) vs. wild-type mice (P-gp (mdr1a/b)): 3400%

CNC(=O)C(CCN1CCC(O)(c2ccc(Cl)cc2)CC1)(c1ccccc1)c1ccccc1 [dLop, N-desmethyl Loperamide]
effect of the presence of CsA on pseudo-steady-state plasma concentration [1]: did not significantly affect; also recorded: not significantly affected | brain:plasma concentrations (ratio) corrected for vascular content (P-gp at the rat BBB): 0.11 ± 0.04 | brain:plasma concentrations (ratio) (P-gp at the rat BBB; not corrected for vascular content): 0.14 ± 0.04

CCC(C)n1ncn(-c2ccc(N3CCN(c4ccc(OCC5COC(Cn6cncn6)(c6ccc(Cl)cc6Cl)O5)cc4)CC3)cc2)c1=O (centres unmarked) [itraconazole]
difference in potency (EC50) to inhibit P-gp depending on the probe substrate (P-gp): 10 fold

C=C[C@H]1C[N@@]2CC[C@H]1C[C@@H]2[C@@H](O)c1ccnc2ccc(OC)cc12 [quindine]
difference in potency (EC50) to inhibit P-gp depending on the probe substrate (P-gp): 20 fold
